In brackets after ≈: the same amount, converted by molar mass.
Tested on: apolipoprotein B (apoB) production
Assay: apo B secretion into medium of HepG2 cells, competitive ELISA
Assay type: cell-based, human
Settings: for inhibitory effect on apo-B production: result in words, these results along with other preliminary studies, alone or in combination; for % apo B reduction / Apo B μg/mL medium / % apo B in medium: HepG2, 24 hours; for IC50: Homo sapiens, apo B in medium of HepG2 cells, 24 hours incubation, read-out: IC50 concentrations; for % apo B in medium: percent of control
Description: Limocitrin derivatives, quercetin derivatives, naturally occurring polymethoxyflavones, and tocotrienols were tested for cholesterol lowering activity in HepG2 cells. Confluent HepG2 cells were preincubated for 24 hours in a lipoprotein-free medium (Minimum Essential Medium (MEM), Life Technologies, Burlington, Canada) in which the fetal bovine serum (Life Technologies, Burlington, Canada) was replaced by bovine serum albumin (BSA, Life Technologies, Burlington, Canada) to inhibit cell proliferation and to stimulate synthesis of cholesterol-containing lipoproteins. Cells were subsequently incubated for another 24 hours in the same medium in the presence or absence of limocitrin derivatives, quercetin derivatives, naturally occurring polymethoxyflavones, or tocotrienols (See Table 1) at the highest concentrations sustaining about 100%±10% cell viability, as determined by the 3-(4,5-dimethylthiazol-2-yl)-2,5-diphenyltetrazolium bromide (MTT) viability assay. The test compounds were added to the cell culture medium after solubilization in dimethyl sulfoxide (DMSO) and filter sterilized. […] For each experiment, equal concentrations of solvent were added to all treatment media and to a control medium (without tested compounds). At the end of the incubation, culture media were collected and the concentration of the LDL structural protein, apo-B, was measured by ELISA. The competitive Elisa assay kit for determination of human apo B (Ortho Diagostics, LaJolla, Calif.) measures medium apo B concentrations within the range 0.4-0.031 μg/mL. In this assay, microtiter 96-well plates are coated with monoclonal antibody against human apo B, which binds apo B epitope from human LDL (standard curve, control sera with high and low content of human apo B) or from LDL-like lipoproteins secreted by HepG2 cells (tested media, usually 2× diluted with Ca^2+- and […]-free phosphate buffered saline (PBS)). After the exposure, a fraction of antibody is blocked and the remaining amount is captured by a subsequent incubation with conjugate containing a secondary antibody (against anti-human apo B) coupled with horseradish peroxidase. The following incubation with horseradish peroxidase substrate, o-phenylenediamine, produces a yellow color change proportional to the amount of apo B present, and the optical density of samples is measured at 490-492 nm against the blank PBS/conjugate wells. To determine whether evaluated compounds cross-react with Elisa assay, in separate study, various doses of compounds were tested in presence of cell-free culture media.
Amount of lipoprotein-associated apo-B in the media net apo-B secretion) was determined as described above, and calculated per mg cell protein. Net apo B3 secretion was also expressed as percent of control (amount of apo B in medium from cells incubated without tested compounds).

[1] = concentration 6.25 μg/mL medium
[2] = concentration 12.5 μg/mL medium
[3] = concentration 25.0 μg/mL medium
[4] = concentration 50.0 μg/mL medium
[5] = concentration 3.12 μg/mL medium

Row | SMILES | inhibitory effect on apo-B production | % apo B reduction [1] | Apo B μg/mL medium [1] | % apo B reduction [2] | Apo B μg/mL medium [2] | % apo B reduction [3] | Apo B μg/mL medium [3] | % apo B in medium [1] | % apo B in medium [2] | % apo B in medium [3] | further results
1 | COc1cc(OC)c2c(=O)c(O)c(-c3ccc(OC)c(OC)c3)oc2c1 [quercetin-5,7,3′,4′-tetramethylether, 3-hydroxy-5,7,3′,4′-tetramethoxyflavone] | inhibitory effects |  |  |  |  |  |  |  |  |  | 
2 | COc1ccc(-c2cc(=O)c3c(O)c(OC)c(OC)c(OC)c3o2)cc1OC [5-desmethylnobiletin, 5-hydroxy-6,7,8,3′,4′-pentamethoxyflavone] | inhibitory effects |  |  |  |  |  |  |  |  |  | 
3 | COc1cc(O)c2c(=O)c(OC)c(-c3ccc(OC)c(OC)c3)oc2c1 [quercetin tetramethylether, 5-hydroxy-3,7,3′,4′-tetramethoxyflavone] | inhibitory effects |  |  |  |  |  |  |  |  |  | 
4 | COc1cc(OC)c2c(=O)c(OC(C)=O)c(-c3ccc(OC)c(OC)c3)oc2c1 [quercetin-5,7,3′,4′-tetramethylether-3-acetate] | inhibitory effects |  |  |  |  |  |  |  |  |  | 
5 | COc1ccc(-c2oc3c(OC)c(OC)c(OC)c(OC)c3c(=O)c2OC)cc1OC [Heptamethoxyflavone, 3,5,6,7,8,3′,4′-heptamethoxyflavone] | inhibitory effects | 45% | 0.138 ± 0.02 μg/mL medium | 68% | 0.080 ± 0.02 μg/mL medium | 81% | 0.048 ± 0.01 μg/mL medium | 55 ± 5% | 32 ± 9% | 19 ± 3% | % apo B reduction [4]: 82%; Apo B μg/mL medium [4]: 0.045 ± 0.01 μg/mL medium; IC50: 7.8 mg/L (≈ 18 µM); % apo B in medium [4]: 18 ± 2%
6 | COc1ccc(-c2cc(=O)c3c(OC)c(OC)c(OC)c(OC)c3o2)cc1 [tangeretin, 5,6,7,8,4′-pentamethoxyflavone] | inhibitory effects | 78% | 0.055 ± 0.01 μg/mL medium | 81% | 0.048 ± 0.01 μg/mL medium | 86% | 0.035 ± 0.01 μg/mL medium | 22 ± 2% | 19 ± 2% | 14 ± 1% | % apo B reduction [5]: 68%; Apo B μg/mL medium [5]: 0.080 ± 0.02 μg/mL medium; IC50: 2.5 mg/L (≈ 6.71 µM); % apo B in medium [5]: 32 ± 8%
7 | CCOc1ccc(-c2oc3c(OC)c(OCC)cc(OCC)c3c(=O)c2OCC)cc1OC [limocitrin-3,5,7,4′-tetraethylether] | inhibitory effects |  |  |  |  |  |  |  |  |  | 
8 | COc1c(-c2ccc(OCc3ccccc3)c(OCc3ccccc3)c2)oc2cc(OCc3ccccc3)cc(OC)c2c1=O [quercetin-3,5-dimethylether-7,3′,4′-tribenzyl ether] | inhibitory effects |  |  |  |  |  |  |  |  |  | 
9 | COc1ccc(-c2cc(=O)c3c(OC)c(OC)c(OC)cc3o2)cc1OC [Sinensetin, 5,6,7,3′,4′-pentamethoxyflavone] | inhibitory effects | 25% | 0.70 ± 0.13 μg/mL medium | 42% | 0.54 ± 0.04 μg/mL medium | 62% | 0.35 ± 0.04 μg/mL medium | 75 ± 14% | 58 ± 4% | 38 ± 5% | % apo B reduction [4]: 72%; Apo B μg/mL medium [4]: 0.26 ± 0.02 μg/mL medium; IC50: 17.8 mg/L (≈ 47.8 µM); % apo B in medium [4]: 28 ± 5%
10 | COc1ccc(-c2cc(=O)c3c(OC)c(OC)c(OC)c(OC)c3o2)cc1OC [nobiletin, 5,6,7,8,3′,4′-hexamethoxyflavone] | inhibitory effects | 33% | 0.37 ± 0.09 μg/mL medium | 68% | 0.175 ± 0.03 μg/mL medium | 82% | 0.10 ± 0.01 μg/mL medium | 67 ± 16% | 32 ± 6% | 18 ± 1% | % apo B reduction [4]: 83%; Apo B μg/mL medium [4]: 0.095 ± 0.01 μg/mL medium; IC50: 4.9 mg/L (≈ 12.2 µM); % apo B in medium [4]: 17 ± 1%
11 | COc1ccc(-c2cc(=O)c3c(OC)c(OC)c(OC)cc3o2)cc1 [Tetra-O-methyl-Scutellarein] |  | 29% | 0.305 ± 0.03 μg/mL medium | 41% | 0.255 ± 0.06 μg/mL medium |  |  | 71 ± 7% | 59 ± 13% |  | 
12 | COc1ccc(-c2cc(=O)c3c(O)c(OC)c(OC)cc3o2)cc1OC [5-desmethylsinensetin, 5-hydroxy-6,7,3′,4′-tetramethoxyflavone] | inhibitory effects |  |  |  |  | 27% | 0.84 ± 0.21 μg/mL medium |  |  | 73 ± 18% | % apo B reduction [4]: 64%; Apo B μg/mL medium [4]: 0.41 ± 0.20 μg/mL medium; % apo B in medium [4]: 36 ± 1%
13 | COc1ccc(-c2oc3c(OC)c(OC)cc(OC)c3c(=O)c2OC)cc1OC [limocitrin-3,5,7,4′-tetramethylether, 3,5,7,8,3′,4′-hexamethoxyflavone] | inhibitory effects |  |  |  |  |  |  |  |  |  | 
14 | COc1ccc(-c2oc3c(OC)c(OC)cc(OC(C)=O)c3c(=O)c2OC)cc1OC [limocitrin-3,7,4′-trimethylether-5-acetate] | inhibitory effects |  |  |  |  |  |  |  |  |  | 
15 | COc1ccc(-c2oc3c(OC)c(OC)cc(O)c3c(=O)c2OC)cc1OC [limocitrin-3,7,4′-trimethylether, 5-hydroxy-3,7,8,3′,4′-pentamethoxyflavone] | inhibitory effects |  |  |  |  |  |  |  |  |  | 
16 | COc1ccc(-c2cc(=O)c3c(OC)cc(OC)c(OC)c3o2)cc1 [tetra-O-methylisoscutellarein, 5,7,8,4′-tetramethoxyflavone] | inhibitory effects |  |  |  |  |  |  |  |  |  | 

Reference: patent publication US7683095B2, “Compositions and methods of treating, reducing and preventing cardiovascular diseases and disorders with polymethoxyflavones” (The United States of America as represented by the …, priority 1998, dated 2010)
